Experimental data from paper PMC4193892, “3-O-Galloylated Procyanidins from Rumex acetosa L. Inhibit the Attachment of Influenza A Virus” (PLoS ONE, 2014).
Read-outs that look alike come from different tables or passages of the source.

Legend:
[1] = system: MDCK II cells; experiment: cells; settings: Canis lupus familiaris, 48 h, read-out: cell vitality
[2] = in vitro
[3] = system: IAV(H1N1)pdm09 isolate I1; experiment: microbe, parasite or virus in culture; assay type: cell-based, influenza A virus; settings: for inhibition at 2 µM / inhibition at 20 µM / inhibition at 200 µM: H1N1, 48 h, read-out: anti-IAV activity
[4] = system: chicken erythrocytes; experiment: Direct agglutination of erythrocytes in the absence of IAV; assay type: cell-based; settings: minimal concentration
Description: Twofold serial dilutions (25 µL) of test compounds in PBS and 4 hemagglutinating units (HU) of IAV (25 µl) were mixed carefully in 96-well plates with U-shaped bottom (Thermo Fisher Scientific Nunc, Schwerte, Germany). Plates were shaken for 5 min. and incubated for 25 min. at room temperature (RT). 50 µL of a 1.5% suspension of newborn chicken erythrocytes (RBC) in PBS (Labor Dr. Merk & Kollegen, Ochsenhausen, Germany) were added, and plates shaken again. Assays were read following a 2 h incubation period at RT, and the minimum inhibitory concentration (MIC), defined as the highest test compound dilution showing complete inhibition of the agglutination of erythrocytes, was determined. In every assay, a test compound control (compound plus RBC without addition of IAV), and erythrocyte controls (A: IAV plus RBC, without addition of test compound; B: RBC, without addition of test compound or IAV) were included.

[5] = system: IAV(H1N1)pdm09 I1; assay type: cell-based, influenza A virus
[6] = system: IAV(H1N1)pdm09; design: method as in PMID 24498245; settings: preincubation of particles for 2 h with 50 µg/mL (265 µM); A549 cells; cited from earlier work
[7] = molecular target: IAV neuraminidase; settings: cited from earlier work
[8] = system: recombinant IAV laboratory strain A/Puerto Rico/8/34-NS116-GFP; settings: cited from earlier work

SMILES | viability at 2 µM [1] [%] | viability at 20 µM [1] [%] | viability at 200 µM [1] [%] | CC50 at 48 h ([2]; dog) [µM] | IC50 ([3]; Influenza A virus, H1N1) [µM] | inhibition at 2 µM ([3]; Influenza A virus) [%] | inhibition at 20 µM ([3]; Influenza A virus) [%] | inhibition at 200 µM ([3]; Influenza A virus) [%] | CC50 at 48 h [2] [µM] | IC50 [3] | direct agglutination [4] [µM] | MIC [5] | effect on virus replication [6] | IC50 [7] [µM] | EC50 [8] [µM]
Oc1cc(O)c2c(c1)O[C@H](c1ccc(O)c(O)c1)[C@H](O)[C@H]2c1c(O)cc(O)c2c1O[C@H](c1ccc(O)c(O)c1)[C@H](O)[C@H]2c1c(O)cc(O)c2c1O[C@H](c1ccc(O)c(O)c1)[C@H](O)[C@H]2c1c(O)cc(O)c2c1O[C@H](c1ccc(O)c(O)c1)[C@H](O)C2 [compound 11, epicatechin-(4β→8)-epicatechin-(4β→8)-epicatechin-(4β→8)-epicatechin] | 101 ± 6 | 86 ± 8 | 54 ± 9 | > 200 | ≤ 225 | 0 | 1 | 44 ± 7 | – | – | – | – | – | – | –
O=C1O[C@H]2[C@@H]3OC(=O)c4cc(O)c(O)c(O)c4-c4c(cc(O)c(O)c4O)C(=O)OC[C@H]2O[C@@H](OC(=O)c2cc(O)c(O)c(O)c2)[C@@H]3OC(=O)c2cc(O)c(O)c3c2[C@@H]2C1=CC(=O)[C@](O)(O3)C2(O)O [compound 13, geraniin, reference compound] | 99 ± 1 | 107 ± 2 | 35 ± 3 | 162 | ≤ 388 | 0 | 1 ± 1 | 25 | – | – | – | – | – | – | –
Oc1cc(O)c2c(c1)O[C@H](c1ccc(O)c(O)c1)[C@H](O)C2 [compound 2, (−)-epicatechin] | 101 ± 2 | 104 ± 4 | 124 ± 20 | – | > 200 | 0 | 0 | 1 ± 1 | > 200 | – | – | – | – | – | –
Oc1cc(O)c2c(c1)O[C@H](c1cc(O)c(O)c(O)c1)[C@H](O)C2 [compound 4, epigallocatechin] | 101 ± 4 | 106 ± 1 | 86 ± 17 | – | > 200 | 0 | 0 | 26 ± 22 | > 200 | – | – | – | – | – | –
O=C(OC[C@H]1O[C@@H](OC(=O)c2cc(O)c(O)c(O)c2)[C@H](OC(=O)c2cc(O)c(O)c(O)c2)[C@@H](OC(=O)c2cc(O)c(O)c(O)c2)[C@@H]1OC(=O)c1cc(O)c(O)c(O)c1)c1cc(O)c(O)c(O)c1 [compound 12, 1,2,3,4,6-penta-O-galloyl-β-D-glucose, reference compound] | 91 ± 7 | 57 ± 14 | 37 ± 3 | – | 22 | 3 ± 3 | 46 ± 9 | 35 ± 1 | 83 | ≤ 22 µM | – | – | – | – | –
Oc1cc(O)c2c(c1)O[C@H](c1ccc(O)c(O)c1)[C@H](O)[C@H]2c1c(O)cc2c(c1O)C[C@@H](O)[C@@H](c1ccc(O)c(O)c1)O2 [compound 9, epicatechin-(4β→6)-epicatechin] | 100 ± 3 | 84 ± 4 | 57 ± 4 | > 200 | ≤ 163 | 0 | 0 | 63 ± 4 | – | – | – | – | – | – | –
Oc1cccc(O)c1O [compound 18, pyrogallol, reference compound] | 98 ± 4 | 96 ± 1 | 43 ± 1 | 176 | ≤ 241 | 0 | 7 ± 3 | 42 ± 1 | – | – | – | – | – | – | –
O=C(/C=C/c1ccc(O)c(O)c1)O[C@H](Cc1ccc(O)c(O)c1)C(=O)O [compound 16, rosmarinic acid, reference compound] | 102 ± 1 | 103 ± 1 | 102 ± 1 | – | > 200 | 0 | 0 | 1 ± 1 | > 200 | – | – | – | – | – | –
Oc1cc(O)c2c(c1)O[C@H](c1ccc(O)c(O)c1)[C@H](O)[C@H]2c1c(O)cc(O)c2c1O[C@H](c1ccc(O)c(O)c1)[C@H](O)C2 [compound 7, epicatechin-(4β→8)-epicatechin] | 107 ± 6 | 108 ± 9 | 117 ± 8 | > 200 | > 200 | 0 | 0 | 1 ± 1 | – | – | – | – | – | – | –
Oc1cc(O)c2c(c1)O[C@H](c1cc(O)c(O)c(O)c1)[C@@H](O)C2 [compound 3, gallocatechin] | 106 ± 5 | 108 ± 1 | 75 ± 17 | – | ≤ 156 | 0 | 0 | 66 ± 5 | > 200 | – | – | – | – | – | –
Oc1cc(O)c2c(c1)O[C@H](c1ccc(O)c(O)c1)[C@@H](O)C2 [compound 1, (+)-catechin monohydrate] | 105 ± 3 | 102 ± 5 | 119 ± 9 | – | > 200 | 0 | 0 | 0 | > 200 | – | – | – | – | – | –
Oc1cc(O)c2c(c1)O[C@H](c1ccc(O)c(O)c1)[C@H](O)[C@H]2c1c(O)cc(O)c2c1O[C@H](c1ccc(O)c(O)c1)[C@H](O)[C@H]2c1c(O)cc(O)c2c1O[C@H](c1ccc(O)c(O)c1)[C@H](O)C2 [compound 10, epicatechin-(4β→8)-epicatechin-(4β→8)-epicatechin] | 104 ± 2 | 99 ± 4 | 122 ± 6 | > 200 | 123 | 0 | 0 | 87 ± 5 | – | – | – | – | – | – | –
O=C(O[C@@H]1Cc2c(O)cc(O)cc2O[C@@H]1c1cc(O)c(O)c(O)c1)c1cc(O)c(O)c(O)c1 [compound 6, reference compound] | 103 ± 4 | 92 ± 7 | 62 ± 9 | > 200 | ≤ 12 | 1 ± 1 | 87 ± 25 | 60 ± 7 | – | – | 156 | no inhibitory effect | – | – | –
O=c1oc2c(O)c(O)cc3c(=O)oc4c(O)c(O)cc1c4c23 [compound 15, ellagic acid, reference compound] | 106 ± 1 | 110 ± 3 | 108 ± 2 | – | > 200 | 0 | 1 ± 1 | 4 ± 1 | > 200 | – | – | – | – | – | –
O=C(O[C@@H]1O[C@@H]2COC(=O)c3cc(O)c(O)c(O)c3-c3c(cc(O)c(O)c3O)C(=O)O[C@H]([C@H]1O)[C@@H]2O)c1cc(O)c(O)c(O)c1 [compound 14, corilagin, reference compound] | 101 ± 1 | 103 ± 1 | 8 ± 1 | 120 | – | 0 | 1 | 3 ± 2 | – | uncalc. ^3 | – | – | – | – | –
O=C(O)c1cc(O)c(O)c(O)c1 [compound 17, gallic acid monohydrate, reference compound] | 106 ± 5 | 107 ± 8 | 49 ± 18 | – | > 200 | 0 | -1 | 14 ± 11 | 197 | – | – | – | only little effect | > 500 | ~50
O=C(O[C@@H]1Cc2c(O)cc(O)cc2O[C@@H]1c1ccc(O)c(O)c1)c1cc(O)c(O)c(O)c1 [compound 5, epicatechin-3-O-gallate] | 107 ± 3 | 106 ± 4 | 41 ± 2 | – | ≤ 258 | 0 | 1 | 38 ± 2 | 175 | – | – | – | – | – | –
